Experimental data: patent US7063946B2, “Methods, reagents, kits and apparatus for protein function analysis” (Meso Scale Technologies, LLC., priority 2001, dated 2006)

Assays:
Format in all cases: biochemical
BTK = biological target: T1, BTK (Homo sapiens, UniProt Q06187); assay: Kinase inhibitor profiling, pEY phosphorylation
T1 construct: specificity data for proteins generated from a library of eighteen full-length clones; host or cells: rabbit reticulocyte lysate, TnT coupled in vitro transcription/translation (cell-free)
T1 sequence (Q06187 whole entry): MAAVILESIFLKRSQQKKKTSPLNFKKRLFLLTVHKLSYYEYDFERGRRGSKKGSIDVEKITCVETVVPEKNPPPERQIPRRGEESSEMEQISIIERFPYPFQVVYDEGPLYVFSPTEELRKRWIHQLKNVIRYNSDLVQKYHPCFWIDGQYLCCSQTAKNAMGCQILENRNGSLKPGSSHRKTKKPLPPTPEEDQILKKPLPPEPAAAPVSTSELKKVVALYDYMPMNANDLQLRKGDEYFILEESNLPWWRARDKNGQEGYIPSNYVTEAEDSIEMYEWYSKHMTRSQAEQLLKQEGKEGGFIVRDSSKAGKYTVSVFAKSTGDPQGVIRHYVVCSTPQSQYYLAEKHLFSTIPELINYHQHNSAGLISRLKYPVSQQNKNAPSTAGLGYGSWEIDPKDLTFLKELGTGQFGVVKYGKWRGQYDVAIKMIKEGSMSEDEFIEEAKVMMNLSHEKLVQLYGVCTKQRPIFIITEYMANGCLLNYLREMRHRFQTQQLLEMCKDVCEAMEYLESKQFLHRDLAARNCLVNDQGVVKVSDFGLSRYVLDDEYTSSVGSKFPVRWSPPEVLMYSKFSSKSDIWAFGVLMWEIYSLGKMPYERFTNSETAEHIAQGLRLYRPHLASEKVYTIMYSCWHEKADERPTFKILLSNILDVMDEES
Description: (§1) Proteins were produced in an in vitro transcription and translation reaction. […] The unbound components of the reaction containing endogenous kinases were removed by three washes with TT-buffer (25 mM Tris-HCl buffer pH 7.4 and 0.004% Triton), two five minutes washings with high-salt wash buffer (25 mM Tris-HCl buffer pH 7.4, 0.004% Triton, 1M NaCl and 5 mM DTT) and 3 more washes with TT-buffer. To these immobilized and purified proteins a tyrosine kinase substrate, 5 nM pEY (poly Glu-Tyr, Sigma, MO), was added in a 50 μl reaction solution containing 5 mM MgCl2, 5 mM MnCl2, 100 μM ATP, 25 mM Tris-HCl buffer pH 7.4, 0.05 mM Na3VO4, 0.004% TritonX-100, 2 mM DTT and EDTA-free protease inhibitor (Roche Molecular Biochemicals). This mixture was incubated with shaking at room temperature overnight to allow phosphorylation of the pEY substrate by the immobilized kinases. Following this incubation, 45 μl of this mixture was transferred to a streptavidin or avidin-coated NPT IPR plate coated with biotinylated anti-phosphotyrosine antibody (PY20, Zymed labs, CA) followed by incubation for 30 minutes at room temperature to allow the binding of the phosphorylated pEY substrate to the PY20 coated NPT plate. Following this binding step, 50 ng Sulfo-TAG labeled anti-phosphotyrosine in buffer containing 25 mM Tris-HCl buffer pH 7.4, 5 mM MgCl2, 0.05 mM Na3VO4, 0.004% TritonX-100, 2 mM DTT and 0.05% IgG was added followed by incubation at room temperature for 30 mm. The unbound reagents were removed by one time washing with water, and the TAG label was detected in presence of 150 μl IPR assay buffer (0.4 mM Gly-Gly buffer, pH 7.8, 1 mM EDTA, 0.1 M TPA). The ECL signals were measured using an imaging plate reader.
(§2) The unbound components of the translation reaction (including any endogenous kinases) were removed by 3 washes with TT-buffer (25 mM Tris-HCl buffer pH 7.4 and 0.004% Triton), two five minutes washes with high-salt wash buffer (25 mM Tris-HCl buffer pH 7.4, 0.004% Triton, 1M NaCl and 5 mM DTT) and 3 washes with TT-buffer. […] The mixture was incubated at room temperature for 10 mm before starting the kinase reaction by adding 25 μl of 200 μM ATP in buffer A. This mixture was incubated with intermittent shaking at room temperature for 2 hours to overnight to allow (a) phosphorylation of the pEY substrate and (b) autophosphorylation of the immobilized kinases. Autophosphorylation and phosphorylation of the pEY was measured as described in Examples 7 and 8.
(§3) The ECL signal in control wells produced by tyrosine kinases was compared to the wells containing inhibitor compounds.

LCK [1] = biological target: T2, LCK (Homo sapiens, UniProt P06239); assay: Kinase inhibitor profiling, autophosphorylation
T2 construct: specificity data for proteins generated from a library of eighteen full-length clones; host or cells: rabbit reticulocyte lysate, TnT coupled in vitro transcription/translation (cell-free)
T2 sequence (P06239 whole entry): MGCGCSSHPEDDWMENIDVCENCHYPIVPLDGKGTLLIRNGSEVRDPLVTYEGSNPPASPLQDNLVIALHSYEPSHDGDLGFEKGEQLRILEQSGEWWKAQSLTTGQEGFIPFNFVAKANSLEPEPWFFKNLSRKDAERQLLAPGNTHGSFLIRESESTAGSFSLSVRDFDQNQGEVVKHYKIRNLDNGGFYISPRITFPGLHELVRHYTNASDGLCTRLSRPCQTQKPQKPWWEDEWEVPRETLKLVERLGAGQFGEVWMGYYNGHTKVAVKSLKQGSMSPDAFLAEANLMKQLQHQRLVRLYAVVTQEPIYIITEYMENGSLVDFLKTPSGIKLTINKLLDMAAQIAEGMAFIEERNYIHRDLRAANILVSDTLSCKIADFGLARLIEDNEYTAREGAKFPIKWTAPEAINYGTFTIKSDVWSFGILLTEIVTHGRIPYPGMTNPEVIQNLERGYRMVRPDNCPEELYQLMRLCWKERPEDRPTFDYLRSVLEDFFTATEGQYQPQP
Description: To promote autophosphorylation in these immobilized and purified proteins, Mn++ ions were added in a 50 μl reaction containing 5 mM MgCl2, 5 mM MnCl2, 100 μM ATP, 25 mM Tris-HCl buffer pH 7.4, 0.05 mM Na3VO4, 0.004% TritonX-100, 2 mM DTT and EDTA-free protease inhibitor (Roche Molecular Biochemicals). This mixture was incubated with shaking at room temperature overnight to allow autophosphorylation. Following this incubation, wells were washed 2 times with TT-buffer and 2 times with water. Following this step, 50 ng Sulfo-TAG labeled anti-phosphotyrosine in buffer containing 25 mM Tris-HCl buffer pH 7.4, 5 mM MgCl2, 0.05 mM Na3VO4, 0.004% TritonX-100, 2 mM DTT and 0.05% IgG in a final volume of 50 μl was added followed by incubation at room temperature for 45 min. The unbound reagents were removed by one time washing with water, and the TAG label was detected in presence of 150 μl IPR assay buffer (0.4 mM Gly—Gly buffer, pH 7.8, 1 mM EDTA, 0.1 M TPA). The ECL signals were measured using an imaging plate reader.
as §2, with “kinases.” for “kinases. Autophosphorylation and phosphorylation of the pEY was measured as described in Examples 7 and 8.”
as §3

LCK [2] = biological target: T2, LCK; assay: Kinase inhibitor profiling, pEY phosphorylation
Description: as §1, §2, §3

Compound | Inhibition specificity towards pEY phosphorylation at 10X IC50, BTK (BTK) | Inhibition specificity towards Autophosphorylation at 10X IC50, LCK (LCK [1]) | Inhibition specificity towards pEY phosphorylation at 10X IC50, LCK (LCK [2])
CC(C)(C)c1cc(C=C(C#N)C#N)cc(Br)c1O [AG-1024] | H (high inhibition (“H”=less than 25% of the activity remaining)) |  | 
Cc1cc2ncc(-c3ccc(O)c(O)c3)nc2cc1C [AG-1433] | H (high inhibition (“H”=less than 25% of the activity remaining)) | H (high inhibition (“H”=less than 25% of the activity remaining)) | 
COc1c(C=O)c(O)cc2c1C(=O)c1ccccc1C2=O [Damnacanthal] | H (high inhibition (“H”=less than 25% of the activity remaining)) |  | 
Cc1ccc(-c2nn(C(C)(C)C)c3ncnc(N)c23)cc1 [PP1] |  |  | M (medium inhibition (“M”=between 25 to 50% of the activity remaining))
COc1cc2ncnc(Nc3ccc(Cl)cc3F)c2cc1OC [VEGFR inhibitor] | M (medium inhibition (“M”=between 25 to 50% of the activity remaining)) | L (low inhibition (“L”=between 50–75% of the activity remaining)) | H (high inhibition (“H”=less than 25% of the activity remaining))
COc1cc2ncnc(Nc3ccc(O)cc3)c2cc1OC [WHI-P131] | M (medium inhibition (“M”=between 25 to 50% of the activity remaining)) | M (medium inhibition (“M”=between 25 to 50% of the activity remaining)) | H (high inhibition (“H”=less than 25% of the activity remaining))
Erbstatin analog |  | L (low inhibition (“L”=between 50–75% of the activity remaining)) | 
